Test [1] concerns control cell lines (MCF-10A and MCF-7). The test can be described thus: Monotherapy drug screen, mean across the controls. The conditions noted are these: for IC50: Homo sapiens, 24 h drug treatment, read-out: GR50 (mean ± SD). The test is classed as cell-based, human. As to the method: (§1) Eighteen pharmaceutical compounds were purchased from Selleckchem (Supplementary Table 2). Stock solutions were prepared using dimethyl sulfoxide (DMSO; Merck), physiological saline (sodium chloride 0.9%) or Milli-Q water, and stored at −80 °C. […] Matched concentration solvent vehicle controls were used for each drug concentration. The drug screens were performed in triplicate and repeated three (monotherapy) or two (combination therapy) times (Fig. 7).
(§2) The optimal seeding density per 96-well was determined for each cell line as previously described. The cells were seeded at a density of 4.0 × 10^3 to 7.5 × 10^3 (cell type dependent) in 96-well clear, flat-bottom microplates (Corning Life Sciences, Sigma-Aldrich) in 100 µl complete culture medium (Supplementary Table 1) and cultured for 24 h. Cell viability was determined using the resazurin assay in untreated cells at the time of plating (t = 0) and treated cells after 24 h drug treatment (Fig. 7). Percentage cell viability was calculated as 100% × (absorbance of treated cells – absorbance of background controls) / (absorbance of matched solvent vehicle controls – absorbance of background controls). The area under the curve (AUC), half-maximal inhibitory concentration (IC50), drug potency (GR50), and drug efficacy (GRmax) were determined for each compound using the GRmetrics (version 1.20.0) package in R. The monotherapy data were evaluated with the IDACombo (version 1.0.2) package in R to predict potential drug combinations (Table 1). SynergyFinder (version 3.2.10) package in R was used to identify synergistic drug combinations.
(§3) Eighteen pharmaceutical compounds were purchased from Selleckchem. […] The solubility of the compound was enhanced by pre-heating the solvent (lukewarm), if necessary. […] The stock solutions were stored at -80°C. […] Matched concentration solvent vehicle controls were used for each drug concentration. The drug screens were performed in triplicate and repeated three times for the monotherapies and twice for the combination treatments. The drug(s) and corresponding controls were plated in 96-well PCR plates (VWR) and stored at -20°C (Fig. 6). The drug plates were thawed, centrifuged (3000 rpm for 30s), and acclimatized to RT before the drugs were added to the cells. New drug plates were prepared for each drug screen.
(§4) The cells were seeded at a density of 4.0x10^3 to 7.5x10^3 (cell type-dependent) in 96-well clear, flat-bottom microplates (Corning Life Sciences, Sigma-Aldrich) in 100 µl culture medium supplemented with 10% FBS and cultured for 24h. Cell viability was determined using the resazurin assay after 24h drug treatment (Fig. 6). Percentage cell viability was calculated as 100% × (absorbance of treated cells – absorbance of background controls) / (absorbance of matched solvent vehicle controls – absorbance of background controls). Normalized growth rate inhibition (GR) was assessed using the absorbance of untreated cells after the time of plating (t = 0). […] For combination treatment, the monotherapy data were evaluated with the IDACombo (version 1.0.2)[20] package in R to predict potential drug combinations (Table 1). SynergyFinder (version 3.2.10)[21] package in R was used to identify synergistic drug combinations.

For a further test, the system named is MCF-7 cells. Put plainly: Resazurin-based cell viability assay, monotherapy drug screen. Set-up: species or system human; AUC: scale not given here. The conditions noted are these: MCF-7; for IC50: Homo sapiens, MCF7, growth rate inhibition concentration at GR(c) = 0.5, 24 h, read-out: GR50 (the source's name); for AUC: area under the dose response curve, 24 h; for GRmax: drug efficacy at highest tested dose (<0 cytotoxic, 0 cytostatic, >0 partial growth inhibition). Summed up: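 Cells were seeded at the highest density (tested 1000-16000 cells/well) giving linear growth between days 1 and 3, keeping them in exponential phase over the ~52 h experiment. Viability was read after 4 h at 37 °C with 0.2 mg/ml resazurin added at 10% of medium volume; ex 560/em 615 nm.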
(In general: Alamar Blue is a resazurin reagent that responds to reducing activity.)

Test [2] concerns the target T1, β5 catalytic site of the 20 S proteasome (Homo sapiens, UniProt P28074).
T1 construct: endogenous in cells; host or cells: MCF-7
Put plainly: Proteasome activity of the β5 catalytic site in MCF-7 cells (Suc-Leu-Leu-Val-Tyr-AMC substrate). The test is classed as cell-based. The following applies: MCF7, MCF-7 cells treated 6 h; for inhibition at 1 µM: 1000 nM; for inhibition at 10 µM: 10000 nM, read-out: inhibition of β5 activity. How it is done:
Proteasome activity of the β5 catalytic site was determined for the PIs using a Suc-Leu-Leu-Val-Tyr-AMC fluorescent proteasome substrate (Enzo Life Sciences, Cat. BML-P802) at a final concentration of 20 µM. MCF-7 cells were seeded at 7.5 × 10^3 cells/well in black 96-well flat-bottom microplates (Nuclon™ Delta Surface, ThermoFisher Scientific) with 100 µl culture medium supplemented with 10% FBS. After 24 h, the cells were treated for 6 h with the 11 PIs at 1, 10, 100, and 1000 nM and matched untreated controls.

The test system of test [3] is eight TNBC cell lines and two controls (MCF-10A and MCF-7). The test can be described thus: Monotherapy drug screen, all investigated cell lines. Format: cell-based, human. The conditions noted are these: for drug potency classification, below the threshold: GR50 and AUC both below the threshold; for drug potency classification: metrics GR50 < 1.0 µM and AUC < 0.80. As to the method:
as §1, §2, §3, §4

For test [4], the system named is eight TNBC cell lines (BT-549, CAL-148, HCC1806, HCC38, HCC70, MDA-MB-436, MDA-MB-453, MDA-MB-468). Put plainly: Monotherapy drug screen, mean across the TNBC cell lines. The following applies: 24 h; for IC50: Homo sapiens, read-out: GR50 (mean ± SD); for area under the dose response curve (AUC), mean ± SD: TNBC cell lines. How it is done:
as §1, §2, §3, §4

The next test has as its system CAL-148 cells. The test can be described thus: Combination therapy, resazurin viability, SynergyFinder. Format: cell-based, human. The conditions noted are these: Homo sapiens. How it is done: as §1, §2, §3, §4

We go through four molecules from publication PMC10825133, “Repurposing proteasome inhibitors for improved treatment of triple-negative breast cancer” (Cell Death Discovery, 2024).

Broadly, the inhibition is the percentage by which the read-out fell short of the control.

Consider `CC(C)C[C@H](NC(=O)[C@H](Cc1ccccc1)NC(=O)c1cnccn1)B(O)O` [Bortezomib], for which the “area under the dose response curve (AUC), mean ± SD” value (from here on “area … mean ± SD”) in test [1] (24 h) amounted to 0.69 ± 0.10. For the same molecule, the IC50 in test [1] amounted to 21 ± 9.7 nM. Also, in the test with MCF-7 cells, the IC50 is 31 nM, the AUC is given as 0.78 and the GRmax is −0.43. Also, in test [2], the inhibition at 1 µM is 95% and the inhibition at 10 µM amounted to 100%. Moreover, in test [3], the “drug potency classification, below the threshold” value is recorded as “highly potent drugs” and the drug potency classification result is reported as “potent drugs”. Moreover, in test [4], the IC50 was found to be 100 ± 110 nM and the “area … mean ± SD” value stood at 0.66 ± 0.10. Also, the inhibition at 0.01 µM with CAL-148 cells (bortezomib 10 nM alone) turned out to be 12.5%. Besides, the inhibition at 0.078 µM in the test with CAL-148 cells (bortezomib 78 nM alone) was 62.8%. Besides, in the test on CAL-148 cells (bortezomib 625 nM alone), the inhibition at 0.625 µM was 55.1%. The inhibition at 5 µM in the test on CAL-148 cells (bortezomib 5000 nM alone) is 55.6%.

Turning to `CC(C)C[C@H](NC(=O)[C@@H](NC(=O)c1cccc(-c2ccccc2)n1)[C@@H](C)O)B(O)O` [Delanzomib], the IC50 in test [1] was determined as 24 ± 13 nM. Further, in the test on MCF-7 cells, the IC50 was 37 nM, the AUC turned out to be 0.77 and the GRmax was −0.28. In addition, in test [2], at 1 µM the inhibition was 55% and the inhibition at 10 µM turned out to be 100%. In test [3], the “drug potency classification, below the threshold” value is listed as “highly potent drugs” and the drug potency classification result is on record as “potent drugs”. In test [4], the IC50 amounted to 79 ± 130 nM and the “area … mean ± SD” value is 0.69 ± 0.10.

Consider `CC(C)C[C@H](NC(=O)CNC(=O)c1cc(Cl)ccc1Cl)B(O)O` [MLN 2238, MLN-2238], for which, in the test on MCF-7 cells, the IC50 worked out at 340 nM, the AUC amounted to 0.87 and the GRmax is on record as −0.29. Moreover, the inhibition at 10 µM in test [2] stood at 33%. Besides, in test [3], the “drug potency classification, below the threshold” value was “highly potent drugs” and the drug potency classification result is listed as “potent drugs”. In test [4], the IC50 was 680 ± 1000 nM and the “area … mean ± SD” value stood at 0.76 ± 0.10.

Take `CC(C)C[C@H](NC(=O)CNC(=O)c1cc(Cl)ccc1Cl)B1OC(=O)C(CC(=O)O)(CC(=O)O)O1` [MLN 9708, MLN-9708]: in the test with MCF-7 cells, the IC50 stood at 270 nM, the AUC is reported as 0.87 and the GRmax was −0.48. In addition, the inhibition at 10 µM in test [2] came to 51%. The drug potency classification result in test [3] was “potent drugs”. In addition, the “area … mean ± SD” value in test [4] was 0.79 ± 0.10.
